Literature values, collected in patent US20140303227A1, “TRANSMUCOSAL HORMONE DELIVERY SYSTEM” (Pharmaceutical Productions Inc., priority 2013, published 2014).

Settings: pH 6.8

For `CN1CCCC1c1cccnc1` (stereo not shown) [nicotine], which “nicotine in the free base form” value is on record?
Its value is “about 10%”.
